From patent US20250152602A1, “MODULATION OF AVERSIVE AND SALT TASTES” (California Institute of Technology, priority 2023, published 2025)
No end group written: not given here.

How the values were obtained:
[1] = test system: dopamine release in the nucleus accumbens (NAc); assay: Dopamine release in the NAc (dLight1.3b fiber photometry) during high-salt consumption; format: in vivo, mice
Procedure: Dopamine measurement: Mice were freely moving in the chamber with gustometer. Bulk fluorescence signals were collected with a fiber photometry setting as described with the light of 405 nm and 490 nm. The ΔF/F was calculated as (raw 490-nm signal−fitted 405-nm signal)/(fitted 405-nm signal). Mice were induced with osmotic thirst 10-15 min, or sodium depletion 24 hr before the access of 500 mM NaCl. For wild-type mice, under PGE2 activation condition, mice were injected PGE2 at a dose of 1 mg per kg BW subcutaneously 1 hr before the shutter open. For Ptger3cre mice, mice were injected with either CNO or vehicle 20 min before the shutter opened. Lick number was recorded simultaneously with the fluorescence signal collection. The first lick bout was identified with the lick rate more than 3.5 and lick number more than 5, with less than 1-sec interval to the subsequent lick. If no lick bout was detectable (observed with osmotic thirst), any first lick event was included into the data. All baseline signals were calculated by averaging signals between 10-20 sec prior to the first lick. Response amplitude (normalized ΔF/F) was calculated by subtracting the baseline ΔF/F from the mean ΔF/F between 0 and 10 sec after the lick initiated.

Ptger3 = assay: PGE2-induced behavior: high-salt consumption / aversive taste tolerance (gustometer lick assay); format: in vivo, mice
Procedure: Prostaglandin: PGE2 powder was diluted in DMSO at 50 mg/ml as stock. For behavioral assay, we used the final concentration of 1 mg per kg BW in PBS containing 1.7% DMSO (v/v). The same vehicle with DMSO was used as control.
All assays were performed in a custom gustometer (Dialog Instruments). All animals were at least trained with osmotic thirst and sodium depletion prior to the behavior trials. Animals were trained to drink at least 200 licks for 500 mM NaCl in 30 min under sodium depletion. Generally, two training sessions with sodium depletion are sufficient to achieve this criterion. […] To prevent this, all tastants at lower concentrations were exposed to animals before experiment. For tolerance tests, one-bottle consumption assay was used in order to avoid preference development during the session.

SFO = assay: Fos immunofluorescence after subcutaneous PGE2 injection; format: in vivo, mice
Procedure: PGE2-induced behavior: PGE2 was injected subcutaneously at a dose of 1 mg per kg BW. Animals had no food or water for 15-90 min before behavioral experiments. For immunohistochemistry, PGE2 was injected at a dose of 3 mg per kg BW and maintained with no food or water for 60 min before euthanasia.
Mice were euthanized with CO2 and perfused with PBS and 4% paraformaldehyde. Extracted mouse brains were fixed overnight at 4° C. in 4% PFA and sectioned coronally to 100-μm slides via vibratome (Leica, VT-1000 S). The sections were blocked (10% donkey serum, 0.2% Triton X-100 in PBS) for 1 hr at room temperature and incubated with primary antibody at 4° C. overnight. The following primary antibodies were used: rabbit anti-FOS (1:500), sheep anti-Foxp2 (1:2,000), chicken anti-GFP (1:3,000), rat anti-mCherry (1:500), and goat anti-nNos (1:500). The sections were washed three times with PBS and incubated with the secondary antibody (1:500; Jackson Immunoresearch) and DAPI ([…]) for 4 hr under room temperature. After three times wash with PBS, the sections were mounted on the glass slide. All slides were imaged with confocal microscope (Leica, TCS SP8) or slide scanner (Olympus, BX61VS).

SFO^Ptger3 neurons [2] = assay: Fiber photometry calcium recording from SFO^Ptger3 neurons (GCaMP7s); format: in vivo, mice; conditions: for calcium response of SFO^Ptger3 neurons to control stimuli (normalized ΔF/F): i.p., mannitol 2 M, 10 ml per kg BW, ghrelin 10 μg, LiCl 0.15 M, 15 ml per kg BW
Procedure: Calcium measurement from SFO^Ptger3 neurons: Mice were headfixed to eliminate the interference from movement. Photometry recording was performed using a commercial photometry system (Neurophotometrics, FP3002). Two LED of different wavelength (470 nm and 415 nm) were bandpass filtered and a patch cord (0.48 NA, Doric lenses) was attached to the photometry system via a 20× objective. The sampling rate was fixed at 40 Hz. Data were acquired with Bonsai (Neurophotometrics) by drawing a region of interest and calculating the mean pixel value, and then were exported to MATLAB for further analysis. The isosbestic signal (415 nm) was fit with a biexponential model and was then linearly scaled to the calcium signal (470 nm). The ΔF/F was calculated as (raw 470-nm signal−fitted 415-nm signal)/(fitted 415-nm signal). For all sessions, stimulus time was recorded through a customized TTL button. During PGE2 activation experiment (FIG. 7C), mice were given PGE2 at a dose of 1 mg per kg BW or DMSO in 100 μl PBS subcutaneously. During other internal-state treatments, mice were exposed to the following stimuli via intraperitoneal injection: 2M mannitol (10 ml per kg BW); […] of ghrelin (in 100 μl PBS), and 0.15M LiCl (15 ml per kg BW). All analysis used the average of 5 min prior to the stimulus as a baseline mean. Normalized ΔF/F was calculated by subtracting the baseline ΔF/F from the mean ΔF/F between 100 and 1500 sec after the stimulus.

mice = conditions: thirst; formalin in dorsal hindpaw
Procedure: Formalin-induced tolerance: Mice were injected with formalin or PBS in the dorsal hindpaw 45-60 min prior to the lick access. Osmotic thirst was induced 10-15 min prior to the lick access. Lick number was recorded for 30 min.

circulating PGE2 = conditions: formalin-induced inflammation
Procedure: Videos were taken for 1 hr following the injection and analyzed for the time mice spent licking the dorsal hindpaw. Mice with more than 30-sec licking paw time in the first 5 min after injection were used for video analysis. Each mouse was subjected to formalin injection twice: in one hind paw under sated conditions, and another under either sodium depleted or photostimulated conditions. To test the effect of optogenetic stimulation, light stimulation was given at 20 Hz with a 1-sec on 3-sec off paradigm for 60 min.
Mice were anaesthetized with isoflurane. Blood was collected via heart puncture into EDTA-coated tubes (BD Microtainer, 365974) and kept on ice. Plasma was then separated by centrifugation at 1,500 g for 20 min. ELISA assays were performed following the protocols of PGE2 ELISA kit (Cayman Chemical, 514531), serotonin ELISA kit (Eagle Bio, SER39-KO1), and progesterone ELISA kit (Cayman Chemical, 582601).

prostaglandin production = assay: NSAIDs-induced loss-of-tolerance (lick number, 30 min); format: in vivo, mice; conditions: sodium depletion; ibuprofen 1 mg per ml drinking water three days plus aspirin 40 mg per kg BW i.p., given together
Procedure: NSAIDs-induced loss-of-tolerance: NSAIDs were used to suppress PGE2 production. Mice were given water supplemented with ibuprofen (1 mg per ml) for three days. On the second day, mice were injected with furosemide to induce sodium depletion. On the third day, aspirin (40 mg per kg BW) was injected intraperitoneally 1-2 hr prior to the lick access. Lick number was recorded for 30 min.

SFO^Ptger3 neurons [3] = assay: Salt tolerance induced by SFO^Ptger3 photostimulation with or without amiloride; format: in vivo, mice
Procedure: (§1) For 5-sec brief access assay, mice were presented with 1 bottle of solution for 30 sec per trial for maximum waiting time before the first lick, and 40 sec between trials. After an initial lick, animals were allowed to drink the solution for additional 5 sec before a shutter closed. To avoid taste conditioning effect, animals were tested with only one solution per day. After testing aversive solutions, bitter and high salt, animals sometimes refused to drink any solution. These animals were retrained with water and low salt until their behavioral level recovers to our criteria stated above.
(§2) For optogenetic activation, 473-nm laser-pulse sequences were delivered via an optic cable (Doric Lenses, MFP—FC-ZF) with pulse generators (World Precision Instruments, SYS-A310 or Quantum composers, Sapphire 9200). The laser intensity was maintained at 10 mW at the tip of the fiber. […] For 5-sec brief access assay, the light stimulation was given at 20 Hz throughout the trial except the paradigm in FIG. 3C.

pre-LC^Pdyn neurons = assay: High-salt licks during pre-LC^Pdyn photostimulation with or without amiloride; format: in vivo, mice
Procedure: as §1, §2

SFO/OVLT^Ptger3 neurons = assay: Chemogenetic inhibition (AAV-DIO-hM4Di + CNO) of LT^Ptger3 neurons, 30-min consumption assay; format: in vivo, mice
Procedure: Surgery procedures were performed according to methods known in the art. Briefly, ketamine (1 mg/ml) and xylazine (10 mg/ml) in saline were injected intraperitoneally at a dose of 10 ml per kg body weight (BW) for anaesthesia. Ketoprofen was injected subcutaneously at a dose of 5 ml per kg BW. Surgery was performed with a stereotaxic apparatus (Narishige, SR-5M-HT) on a heating pad at 37° C. Virus was delivered with a microprocessor-controlled injection system (World Precision Instruments, Nanolitre 2000) at 100 nl/min. The following coordinates were used: for pre-LC: anterior-posterior (AP), 9,000, medial-lateral (ML), 1,000, ventral-dorsal (VD), 3,800; for SFO: AP, 4,000, ML, 0, VD, 2,500; for OVLT: AP, 2,475, ML, 0, VD, 4,750; for dorsal part of the NAc medial shell: AP, 2,100, ML, 700, VD, 4,000. For optogenetic experiments, virus was delivered unilaterally at a volume of 120-200 nl. Implants were made by gluing a 200-μm fibre bundle (Thorlabs, FT200EMT) to a ceramic ferrule (Thorlabs, CF230-10) with epoxy. The fibre implant was placed 200 μm above the virus injection site. For fiber photometry experiments, virus was delivered at a volume of 150-200 nl (calcium measurement) or 500 nl (dopamine measurement) per region. A 400-μm fiber bundle (Thorlabs, FT400UMT) was used instead. For chemogenetic inhibition experiments, virus was delivered at 180-200 nl per region. For ablation experiments, virus was delivered at 200-250 nl per region. For local knockdown experiments, virus was delivered at 150-200 nl per region. At the end of experiments, all animals were euthanized for histological examination.
For 30-min access assay, mice were presented with 1 bottle for 30 min and consumption was measured.
For chemogenetic experiments, clozapine N-oxide (CNO) was administered intraperitoneally at doses of 10 mg per kg BW for inhibition or 1 mg per kg BW for activation 20 min before the consumption trial started. Pure water instead of saline was used as vehicle to avoid sodium repletion.

Q: How did the “high-salt consumption during dLight recording” value ([1]; thirsty mice, subcutaneous PGE2 1 mg per kg BW) turn out when CCCCC[C@H](O)/C=C/[C@H]1[C@H](O)CC(=O)[C@@H]1C/C=C\CCCC(=O)O [PGE2, Prostaglandin E2] was run?
A: The value was “increased high-salt consumption”.

Q: What about the “dopamine release in the NAc (dLight1.3b)” value ([1]; thirsty mice, subcutaneous PGE2, 500 mM NaCl) of the same compound?
A: Its value is “enhanced dopamine release”.

Q: And the PGE2-mediated high-salt tolerance (Ptger3; Ptger3 KD animals)?
A: The PGE2-mediated high-salt tolerance was “largely abolished”.

Q: What about the PGE2-mediated high-salt tolerance (Ptger3; Ptger3^Cre/Cre animals) of the same compound?
A: The PGE2-mediated high-salt tolerance was “largely abolished”.

Q: What about the “salt tolerance (500 mM NaCl consumption)” value (Ptger3; osmotic thirst, wild-type or Ptger3^Cre/wt, PGE2 s.c. 1 mg per kg BW) of the same compound?
A: Its value is “increased salt tolerance”.

Q: And the “appetite (high-salt consumption)” value (Ptger3; sated conditions, PGE2 s.c.)?
A: The value was “did not induce any appetite”.

Q: What about the “Fos immunofluorescence signals in the SFO” value (SFO; peripheral (subcutaneous) PGE2 3 mg per kg BW, Ptger3-dependent) of the same compound?
A: The value was “strong Fos immunofluorescence signals”.

Q: What about the “Fos signal in the pre-LC” value (SFO; subcutaneous PGE2, scramble- and Ptger3-shRNA-injected mice) of the same compound?
A: The value was “No Fos signal”.

Q: And the “calcium dynamics of SFO^Ptger3 neurons (normalized ΔF/F)” value (SFO^Ptger3 neurons [2]; subcutaneous PGE2 1 mg per kg BW vs vehicle)?
A: The value was “time-locked calcium increases”.

Q: Which “high salt tolerance (500 mM NaCl)” value (mice) does the source give for C=O [formalin] here?
A: The value was “partially induced high salt tolerance”.

Q: And the water intake (mice)?
A: Its water intake is “unaffected”.

Q: And the “circulating PGE2 levels” value (circulating PGE2)?
A: Its value is “increased the PGE2 levels”.

Q: For [Cl-].[Li+] [LiCl], which “calcium response of SFO^Ptger3 neurons to control stimuli (normalized ΔF/F)” value (shortened to “calcium response … (normalized ΔF/F)”) (SFO^Ptger3 neurons [2]) is on record?
A: Its value is “no activation”.

Q: How did the “calcium response … (normalized ΔF/F)” value (SFO^Ptger3 neurons [2]) turn out when “ghrelin (GSSFLSPEHQRVQQRKESKKPPAKLQPR; ends and bridges not checked; UniProt Q9UBU3 24-51, looked up) [control stimulus for hunger]” was run?
A: Its value is “no activation”.

Q: How did the “salt tolerance (high salt)” value (prostaglandin production) turn out when CC(=O)Oc1ccccc1C(=O)O [aspirin] was run?
A: Its value is “significantly reduced salt tolerance”.

Q: For CC(C)Cc1ccc(C(C)C(=O)O)cc1 (stereo not shown) [ibuprofen], which “salt tolerance (high salt)” value (prostaglandin production) is on record?
A: Its value is “significantly reduced salt tolerance”.

Q: What does the source list for N=C(N)NC(=O)c1nc(Cl)c(N)nc1N [amiloride]?
A: SFO^Ptger3-mediated salt tolerance (SFO^Ptger3 neurons [3]): no effect; sodium consumption (500 mM NaCl licks) induced by pre-LC^Pdyn photostimulation (pre-LC^Pdyn neurons): no longer induced sodium consumption

Q: With C[N+]1([O-])CCN(C2=Nc3cc(Cl)ccc3Nc3ccccc32)CC1 [CNO, clozapine N-oxide] as the compound, how does the “dopamine signals in the NAc (dLight1.3b)” value ([1]; hM3Dq in SFO^Ptger3 neurons, CNO i.p. 1 mg per kg BW vs vehicle, high-salt ingestion) read?
A: Its value is “greatly enhanced”.

Q: And the “tolerance toward aversive salt (500 mM NaCl)” value (SFO/OVLT^Ptger3 neurons; hypovolemic state, hM4Di in SFO/OVLT, CNO i.p.)?
A: The value was “drastically suppressed tolerance”.

Q: And the “solute intake (water or high salt)” value (SFO/OVLT^Ptger3 neurons; osmotic thirst, LT^Ptger3 inhibition)?
A: Its value is “no effect”.

Q: And the “tolerance of low salt with quinine or KCl” value (SFO/OVLT^Ptger3 neurons; sodium depletion, LT^Ptger3-inhibited mice)?
A: The value was “no longer tolerated”.

Q: What about the “tolerance of low salt with KCl or quinine” value (SFO/OVLT^Ptger3 neurons; sodium depletion, only SFO^Ptger3 neurons inhibited (hM4Di in SFO)) of the same compound?
A: Its value is “blunted tolerance”.

Q: And the “tolerance toward aversive salt” value (SFO/OVLT^Ptger3 neurons; sodium-depleted state, hM4Di in SFO/OVLT, CNO i.p. 10 mg per kg BW)?
A: The value was “drastically suppressed tolerance”.

Q: Which “calcium response … (normalized ΔF/F)” value (SFO^Ptger3 neurons [2]) does the source give for OC[C@@H](O)[C@@H](O)[C@H](O)[C@H](O)CO [mannitol] here?
A: Its value is “no activation”.
